Reference: patent publication US9000125B2, “Approach to treat intraocular hypertension” (priority 2006, dated 2015)
No end group written: not given here.

System: intraocular pressure (IOP) of the rabbit eye
Test: IOP (TonoPen) in anaesthetized normal NZW rabbits after deposition/injection beneath the Tenon's capsule
Settings: Example 9; 50 or 100 μg below the Tenon's capsule

## CHSKTR [CHSKTR]
  local or systemic side effects: without inducing any local or systemic side effects
